Test results from patent US10941174B2, “Non-caloric sweetener” (Conagen Inc., priority 2014, dated 2021).
One block for each compound: values may come before it.

Assays:
[1] = background statement; cited from earlier work
[2] = Sensory evaluation (taste test) of Reb D3 against sucrose controls by a panel of nine volunteers; type: in vivo, human; settings: for overall % sweetness equivalence (SE) average: room temperature, vs 1.0%, 3.0%, 6.0% sucrose (w/v), nine volunteers
Procedure: In this Example, a taste test was conducted on Reb D3.
Sensory evaluation of Reb D3 was performed using sucrose as a control. The sucrose sample purchased from Sigma-Aldrich and prepared control samples at three different concentrations of 1.0%, 3.0%, and 6.0% sucrose in bottled water (w/v) at room temperature. The steviol glycoside Reb D3 at 300, and 600 ppm for sensory evaluation was prepared by adding corresponding mass into a 1000 mL of bottled water. The mixture was stirred at room temperature and the steviol glycoside sample was then evaluated against several control sucrose samples at 1.0%, 3.0%, and 6.0% by a panel of nine volunteers.

[3] = Solubility in water of Reb D3 compared to Reb D; type: physicochemical
Text: In this Example, the solubility of Reb D3 was compared to Reb D.

SMILES: C=C1C[C@@]23CC[C@H]4[C@@](C)(CCC[C@@]4(C)C(=O)O[C@@H]4O[C@H](CO)[C@@H](O)[C@H](O)[C@H]4O)[C@@H]2CC[C@]1(O[C@@H]1O[C@H](CO)[C@@H](O)[C@H](O)[C@H]1O[C@@H]1O[C@@H](C)[C@H](O)[C@@H](O)[C@H]1O)C3 [Dulcoside A]
- times sweeter than sucrose [1]: about 30 times

SMILES: C=C1C[C@@]23CCC4[C@](C)(C(=O)OC5OC(CO)C(O)C(O)C5OC5OC(CO)C(O)C(O)C5O)CCC[C@@]4(C)[C@@H]2CCC1(OC1OC(COC2OC(CO)C(O)C(O)C2O)C(O)C(O)C1OC1OC(CO)C(O)C(O)C1O)C3 (stereo partly drawn) [Reb D3, 13-[(2-O-β-D-glucopyranosyl-6-O-β-D-glucopyranosyl-β-D-glucopyranosyl)oxy] ent-kaur-16-en-19-oic acid-(2-O-β-D-glucopyranosyl-β-D-glucopyranosyl) ester]
- overall % sweetness equivalence (SE) average ([2]; 300 ppm in bottled water): about 2.4%
- overall % sweetness equivalence (SE) average ([2]; 600 ppm in bottled water): ~5.4%
- times sweeter to sucrose ([2]; from SE at 300 and 600 ppm): 80-90 times
- solubility in water compared with Reb D [3]: higher solubility in water than does Reb D
- dissolution in water ([3]; solutions of 0.25 mM, 0.5 mM, 1 mM, 1.5 mM, 2 mM, 5 mM and 10 mM in water): completely dissolved in water immediately

- dissolution in water when heated ([3]; 0.5 mM, 1 mM, 1.5 mM, 2 mM, 5 mM and 10 mM, heated at 30° C. for 72 hours): did not dissolve
- concentration that totally dissolved in water ([3]; tested 0.25-10 mM in water): 0.25 mM
SMILES: C=C1C[C@@]23CC[C@H]4[C@@](C)(CCC[C@@]4(C)C(=O)O[C@@H]4O[C@H](CO)[C@@H](O)[C@H](O)[C@H]4O[C@@H]4O[C@H](CO)[C@@H](O)[C@H](O)[C@H]4O)[C@@H]2CC[C@]1(O[C@@H]1O[C@H](CO)[C@@H](O)[C@H](O[C@@H]2O[C@H](CO)[C@@H](O)[C@H](O)[C@H]2O)[C@H]1O[C@@H]1O[C@H](CO)[C@@H](O)[C@H](O)[C@H]1O)C3 [Reb D, Rebaudioside D]

SMILES: C=C1C[C@@]23CC[C@H]4[C@@](C)(CCC[C@@]4(C)C(=O)O[C@@H]4O[C@H](CO)[C@@H](O)[C@H](O)[C@H]4O)[C@@H]2CC[C@]1(O[C@@H]1O[C@H](CO)[C@@H](O)[C@H](O[C@@H]2O[C@H](CO)[C@@H](O)[C@H](O)[C@H]2O)[C@H]1O[C@@H]1O[C@H](CO)[C@@H](O)[C@H](O)[C@H]1O)C3 [Rebaudioside A]
- after-taste [1]: less of an after-taste than stevioside

SMILES: C=C1C[C@@]23CC[C@H]4[C@@](C)(CCC[C@@]4(C)C(=O)O[C@@H]4O[C@H](CO)[C@@H](O)[C@H](O)[C@H]4O)[C@@H]2CC[C@]1(O[C@@H]1O[C@H](CO)[C@@H](O)[C@H](O[C@@H]2O[C@H](CO)[C@@H](O)[C@H](O)[C@H]2O)[C@H]1O[C@@H]1O[C@@H](C)[C@H](O)[C@@H](O)[C@H]1O)C3 [Rebaudioside C]
- times sweeter than sucrose [1]: 40-60 times

SMILES: C=C1C[C@@]23CC[C@H]4[C@@](C)(CCC[C@@]4(C)C(=O)O[C@@H]4O[C@H](CO)[C@@H](O)[C@H](O)[C@H]4O)[C@@H]2CC[C@]1(O[C@@H]1O[C@H](CO)[C@@H](O)[C@H](O)[C@H]1O[C@@H]1O[C@H](CO)[C@@H](O)[C@H](O)[C@H]1O)C3 [Stevioside]
- after-taste [1]: bitter after-taste
- times sweeter than sucrose [1]: 100-150 times

SMILES: C=C1C[C@@]23CCC4[C@](C)(C(=O)OC5OC(CO)C(O)C(O)C5OC5OC(CO)C(O)C(O)C5O)CCC[C@@]4(C)[C@@H]2CCC1(OC1OC(CO)C(O)C(O)C1OC1OC(CO)C(O)C(O)C1O)C3 (stereo partly shown) [rebaudioside E, Rebaudioside E]
- after-taste [1]: less of an after-taste than stevioside
